# Square brackets hold non-standard residues; d marks the D form. Ends that are not written are not given here. dOrn = NCCC[C@@H](N)C(=O)O; βAla = NCCC(=O)O
# How the values were obtained:
# human lymphocytes [1] = experiment: Laser scanning confocal microscopy of internalization into human lymphocytes; type: cell-based; conditions: 1 μM
# Method: Freshly isolated human lymphocytes were incubated with fluorescently labeled Tat-BH4 peptide to confirm intracellular localization of the functional permeant peptide. For labeling, cells were suspended for 30 minutes in modified Earl's balanced salt solution containing 1 μM of the fluorescently labeled TAT-BH4. Control cells were treated identically except no labeled TAT-BH4 was added. Following fixation for 10 minutes in 4% paraformaldehyde, cells were analyzed for peptide internalization via detection of fluorescence by confocal microscopy using an inverted Zeiss Axiovert 200 laser scanning confocal microscope couple to a Zeiss LSM 5 PASCAL fitted with a 488 nm excitation Argon laser and a 520 nm bandpass emission filter. All images were obtained using a water immersion lens (40×) and identical instrument settings.
# human lymphocytes [2] = experiment: E. coli bacterial-induced lymphocyte apoptosis, staining for active caspase 3; type: cell-based; conditions: human lymphocytes, live E. coli ~5 hours
# Method: (§1) Thymocytes and splenocytes were obtained from CLP and sham-treated mice ˜20 hours postoperatively. The APO-BRDU™ kit (Phoenix Flow Systems, San Diego, Calif.) was employed for flow cytometric quantitation of TUNEL. Antibodies to active caspase 3 (Cell Signaling—Catalog #9664) were used in the flow cytometry and/or TUNEL assay.
# Lymphocytes were harvested from peripheral blood obtained from 6 healthy volunteers using a ficol gradient separation technique. Approximately 1×10^6 lymphocytes were plated in individual transwell containers. E. coli bacteria (strain ATCC 25922), that had been grown overnight in trypticase soy broth were added to a separate compartment of the transwell chamber separated from direct contact with the lymphocytes by a 0.02 micron filter (25 μl of bacteria at 3×10^9 CFUs added to 1 ml volume.
# [3] = system: sepsis-induced lymphocyte apoptosis; experiment: Cecal ligation and puncture (CLP) sepsis model, lymphocyte apoptosis by active caspase 3; type: in vivo, C57BL6/J mice; conditions: mice, 1 mg by mini-osmotic pump plus additional 9.5 mg dose i.p.
# Method: C57BL6/J male mice were housed for at least one week before manipulations. Mice were anesthetized with halothane and an abdominal incision was performed. The cecum was identified, ligated, and punctured with a #30 gauge needle. The abdomen was closed in two layers and 1 cc of 0.9% saline was administered subcutaneously.
# as §1
# The pumps were implanted approximately 3 hours prior to CLP because it requires ˜3 hours for pumps to activate and deliver steady state levels of compound.
# The pumps were not activated until approximately three hours after implantation. […] Spleens, thymi and blood were harvested and examined for apoptosis via staining for active caspase 3.
Substance,internalization into human lymphocytes (human lymphocytes [1]),bacterial-induced apoptosis (human lymphocytes [2]; 500 nM),bacterial-induced apoptosis (human lymphocytes [2]; 1 μM),sepsis-induced CD3 T cell and B cell apoptosis in the spleen [3]
(d) ac-C(FM)RKKRR-Orn-RRR-β-A-(I)-SNRELVVDFLSYKLSQKGYS-COOH ([dR][dK][dK][dR][dR][dOrn][dR][dR][dR][βAla]SNRELVVDFLSYKLSQKGYS-OH; not fully specified (N-terminus)) [fluorescein conjugated TAT-BH4],located intracellular,,,
(d)-Ac-RKKRR-Orn-RRR-β-A-(l)-SNRELVVDFLSYKLSQKGYS-COOH (Ac-[dR][dK][dK][dR][dR][dOrn][dR][dR][dR][βAla]SNRELVVDFLSYKLSQKGYS-OH; SMILES CC(=O)N[C@H](CCCNC(=N)N)C(=O)N[C@H](CCCCN)C(=O)N[C@H](CCCCN)C(=O)N[C@H](CCCNC(=N)N)C(=O)N[C@H](CCCNC(=N)N)C(=O)N[C@H](CCCN)C(=O)N[C@H](CCCNC(=N)N)C(=O)N[C@H](CCCNC(=N)N)C(=O)N[C@H](CCCNC(=N)N)C(=O)NCCC(=O)N[C@@H](CO)C(=O)N[C@@H](CC(N)=O)C(=O)N[C@@H](CCCNC(=N)N)C(=O)N[C@@H](CCC(=O)O)C(=O)N[C@@H](CC(C)C)C(=O)N[C@H](C(=O)N[C@H](C(=O)N[C@@H](CC(=O)O)C(=O)N[C@@H](Cc1ccccc1)C(=O)N[C@@H](CC(C)C)C(=O)N[C@@H](CO)C(=O)N[C@@H](Cc1ccc(O)cc1)C(=O)N[C@@H](CCCCN)C(=O)N[C@@H](CC(C)C)C(=O)N[C@@H](CO)C(=O)N[C@@H](CCC(N)=O)C(=O)N[C@@H](CCCCN)C(=O)NCC(=O)N[C@@H](Cc1ccc(O)cc1)C(=O)N[C@@H](CO)C(=O)O)C(C)C)C(C)C) [TAT-BH4],,significant decrease,significant decrease,ameliorated the increase
